Data published in patent US5545547A, “Enzymes as agricultural chemical adjuvants” (priority 1992, dated 1996).

Tests used:
Assay type in all cases: in vivo
[1] = tested on: Alfalfa; assay: Greenhouse multispecies herbicide screen with/without P. mendocina enzyme
Procedure: (§1) Several plant species including weeds and crops are used in these experiments.
(§2) A number of herbicides from various chemical classes were compared in a multispecies screen for percent chlorosis, necrosis and vigor reduction both with and without application of the enzyme from Pseudomonas mendocina ATCC 53552 described earlier. […] Two different enzyme concentrations were used: 0.5 mg/ml (HE) and 0.05 mg/ml (LE) and applied at the rate of 40 gallons/acre. All spraying solutions were at pH 10 and contained 100 mm sodium phosphate each. […] All the experiments were carried out in a greenhouse.
(§3) Chlorosis--figures represent percent of plants showing chlorosis.
(§4) Necrosis--figures represent percent of plants showing necrosis.
(§5) Vigor--figures represent percent of plants showing decreased vigor.
(§6) Phytotoxicity--figures represent the average percent of chlorosis, necrosis, and vigor for a given sample.

[2] = tested on: Barnyard Grass; assay: as above
Procedure: as §1, §2, §3, §4, §5, §6

[3] = tested on: Soybeans; assay: as above; details: one week after treatment
Excerpt: as §1
(§7) A number of herbicides from various chemical classes were compared in a multispecies screen for percent chlorosis, necrosis and vigor reduction both with and without application of the enzyme from Pseudomonas mendocina ATCC 53552 described earlier. The herbicides were applied to various plants at the manufacturers recommended doses and at 10% and 40% of the recommended dose. Two different enzyme concentrations were used: 0.5 mg/ml (HE) and 0.05 mg/ml (LE) and applied at the rate of 40 gallons/acre. All spraying solutions were at pH 10 and contained 100 mm sodium phosphate each. Ratings were done at 6 and 12 days after the treatment. All the experiments were carried out in a greenhouse.
as §3, §4, §5, §6
The method of Example 1 was used except that the enzyme was applied 2 hours prior to administering the agricultural chemical with the following results. Ratings were done two weeks after treatment

[4] = tested on: various plants; assay: Greenhouse multispecies herbicide screen, statements on all tested plants; details: High HYVAR; all other tested conditions; after two weeks
Excerpt: as §1
as §7, with “Ratings were done at 6 and 12 days after the treatment.” left out

[5] = HYVAR 10% dose, High Enzyme, one week after treatment
[6] = HYVAR 10% dose, Low Enzyme, one week after treatment
[7] = HYVAR 10% dose, No Enzyme, one week after treatment
[8] = HYVAR 18%, High Enzyme, two weeks after treatment
[9] = HYVAR 18%, Low Enzyme, two weeks after treatment
[10] = HYVAR 18%, No Enzyme, two weeks after treatment
[11] = HYVAR 40% dose, High Enzyme, one week after treatment
[12] = HYVAR 40% dose, Low Enzyme, one week after treatment
[13] = HYVAR 40% dose, No Enzyme, one week after treatment
[14] = HYVAR 100% dose, No Enzyme, one week after treatment

CCC(C)n1c(=O)[nH]c(C)c(Br)c1=O (stereo not shown) [HYVAR, 5-bromo-6-methyl-3-(1-methylpropyl)-2,4-(1H,3H)-pyrimidinedione]
CHL (chlorosis) [1, 5]: 18% | NEC (necrosis) [1, 5]: 0% | PHY (phytotoxicity) [1, 5]: 10% | VIG (vigor) [1, 5]: 10% | CHL (chlorosis) [1, 6]: 50% | NEC (necrosis) [1, 6]: 5% | PHY (phytotoxicity) [1, 6]: 28% | VIG (vigor) [1, 6]: 30% | CHL (chlorosis) [1, 7]: 10% | NEC (necrosis) [1, 7]: 5% | PHY (phytotoxicity) [1, 7]: 8% | VIG (vigor) [1, 7]: 10% | CHL (chlorosis) [1, 8]: 100% | NEC (necrosis) [1, 8]: 100% | PHY (phytotoxicity) [1, 8]: 100% | VIG (vigor) [1, 8]: 100% | CHL (chlorosis) [1, 9]: 100% | NEC (necrosis) [1, 9]: 100% | PHY (phytotoxicity) [1, 9]: 100% | VIG (vigor) [1, 9]: 100% | CHL (chlorosis) [1, 10]: 55% | NEC (necrosis) [1, 10]: 58% | PHY (phytotoxicity) [1, 10]: 57% | VIG (vigor) [1, 10]: 58% | CHL (chlorosis) [1, 11]: 30% | NEC (necrosis) [1, 11]: 13% | PHY (phytotoxicity) [1, 11]: 24% | VIG (vigor) [1, 11]: 30% | CHL (chlorosis) [1, 12]: 30% | NEC (necrosis) [1, 12]: 30% | PHY (phytotoxicity) [1, 12]: 37% | VIG (vigor) [1, 12]: 50% | CHL (chlorosis) [1, 13]: 25% | NEC (necrosis) [1, 13]: 5% | PHY (phytotoxicity) [1, 13]: 15% | VIG (vigor) [1, 13]: 15% | CHL (chlorosis) [1, 14]: 50% | NEC (necrosis) [1, 14]: 10% | PHY (phytotoxicity) [1, 14]: 37% | VIG (vigor) [1, 14]: 50% | CHL (chlorosis) [2, 5]: 25% | NEC (necrosis) [2, 5]: 10% | PHY (phytotoxicity) [2, 5]: 28% | VIG (vigor) [2, 5]: 50% | CHL (chlorosis) [2, 6]: 50% | NEC (necrosis) [2, 6]: 18% | PHY (phytotoxicity) [2, 6]: 39% | VIG (vigor) [2, 6]: 50% | CHL (chlorosis) [2, 7]: 30% | NEC (necrosis) [2, 7]: 25% | PHY (phytotoxicity) [2, 7]: 28% | VIG (vigor) [2, 7]: 30% | CHL (chlorosis) [2, 8]: 95% | NEC (necrosis) [2, 8]: 88% | PHY (phytotoxicity) [2, 8]: 90% | VIG (vigor) [2, 8]: 88% | CHL (chlorosis) [2, 9]: 88% | NEC (necrosis) [2, 9]: 85% | PHY (phytotoxicity) [2, 9]: 86% | VIG (vigor) [2, 9]: 85% | CHL (chlorosis) [2, 10]: 85% | NEC (necrosis) [2, 10]: 78% | PHY (phytotoxicity) [2, 10]: 80% | VIG (vigor) [2, 10]: 78% | CHL (chlorosis) [2, 11]: 55% | NEC (necrosis) [2, 11]: 50% | PHY (phytotoxicity) [2, 11]: 45% | VIG (vigor) [2, 11]: 30% | CHL (chlorosis) [2, 12]: 55% | NEC (necrosis) [2, 12]: 60% | PHY (phytotoxicity) [2, 12]: 59% | VIG (vigor) [2, 12]: 63% | CHL (chlorosis) [2, 13]: 65% | NEC (necrosis) [2, 13]: 30% | PHY (phytotoxicity) [2, 13]: 50% | VIG (vigor) [2, 13]: 55% | CHL (chlorosis) [2, 14]: 50% | NEC (necrosis) [2, 14]: 60% | PHY (phytotoxicity) [2, 14]: 62% | VIG (vigor) [2, 14]: 75% | CHL (chlorosis) ([3]; HYVAR 10% dose, High Enzyme): 25% | NEC (necrosis) ([3]; HYVAR 10% dose, High Enzyme): 50% | PHY (phytotoxicity) ([3]; HYVAR 10% dose, High Enzyme): 42% | VIG (vigor) ([3]; HYVAR 10% dose, High Enzyme): 50% | CHL (chlorosis) ([3]; HYVAR 10% dose, Low Enzyme): 90% | NEC (necrosis) ([3]; HYVAR 10% dose, Low Enzyme): 83% | PHY (phytotoxicity) ([3]; HYVAR 10% dose, Low Enzyme): 88% | VIG (vigor) ([3]; HYVAR 10% dose, Low Enzyme): 90% | CHL (chlorosis) ([3]; HYVAR 10% dose, No Enzyme): 55% | NEC (necrosis) ([3]; HYVAR 10% dose, No Enzyme): 75% | PHY (phytotoxicity) ([3]; HYVAR 10% dose, No Enzyme): 68% | VIG (vigor) ([3]; HYVAR 10% dose, No Enzyme): 75% | CHL (chlorosis) ([3]; HYVAR 40% dose, High Enzyme): 45% | NEC (necrosis) ([3]; HYVAR 40% dose, High Enzyme): 50% | PHY (phytotoxicity) ([3]; HYVAR 40% dose, High Enzyme): 59% | VIG (vigor) ([3]; HYVAR 40% dose, High Enzyme): 83% | CHL (chlorosis) ([3]; HYVAR 40% dose, Low Enzyme): 55% | NEC (necrosis) ([3]; HYVAR 40% dose, Low Enzyme): 88% | PHY (phytotoxicity) ([3]; HYVAR 40% dose, Low Enzyme): 72% | VIG (vigor) ([3]; HYVAR 40% dose, Low Enzyme): 73% | CHL (chlorosis) ([3]; HYVAR 40% dose, No Enzyme): 45% | NEC (necrosis) ([3]; HYVAR 40% dose, No Enzyme): 60% | PHY (phytotoxicity) ([3]; HYVAR 40% dose, No Enzyme): 39% | VIG (vigor) ([3]; HYVAR 40% dose, No Enzyme): 73% | CHL (chlorosis) ([3]; HYVAR 100% dose, No Enzyme): 100% | NEC (necrosis) ([3]; HYVAR 100% dose, No Enzyme): 100% | PHY (phytotoxicity) ([3]; HYVAR 100% dose, No Enzyme): 100% | VIG (vigor) ([3]; HYVAR 100% dose, No Enzyme): 100% | kill [4]: 100%
